# How the values were obtained:
# Assay in all cases: relative viability (nuclei count vs DMSO), 5 days (fraction); higher = more cells survive
# [1] = compound: CN1CCN(CC1)C2=CC(=C(C=C2)NC3=NC(=C(S3)C(=O)C4=C(C=CC=C4Cl)Cl)N)OC [XMD14-99] + CC(=O)c1c(C)c2cnc(Nc3ccc(N4CCNCC4)cn3)nc2n(C2CCCC2)c1=O [Palbociclib] (partner 0.5 µM)
# Procedure, shortened: (§1)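 Nuclei were stained with Hoechst during a one-step fixation (final 0.05% Triton X-100, 1% formaldehyde, 1 ug/ml Hoechst) carried out 5 days after dosing, then counted on 4× images. The cells, lung cancer lines in 1536-well plates, had been dosed by pin tool the day after seeding with one drug alone or a fixed anchor-drug dose plus five library-drug doses (not always all listed) in √10 steps. Relative viability is the nuclei count in treated wells divided by that in vehicle wells, and each value is the median of duplicate plates.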
# [2] = compound: CN1CCN(CC1)C2=CC(=C(C=C2)NC3=NC(=C(S3)C(=O)C4=C(C=CC=C4Cl)Cl)N)OC [XMD14-99] + NC(=O)Nc1cc(-c2cccc(F)c2)sc1C(=O)N[C@H]1CCCNC1 [AZD7762] (partner 0.2 µM)
# Procedure, shortened: as §1
# [3] = compound: N[C@@H]1CCCN(c2c(/C=C3\SC(=O)NC3=O)cccc2-c2ccccc2)C1 [AZD1208] + C[C@@H](Oc1cc(-c2cnn(C3CCNCC3)c2)cnc1N)c1c(Cl)ccc(F)c1Cl [Crizotinib] (partner 1 µM)
# Procedure, shortened: as §1
# [4] = compound: N[C@@H]1CCCN(c2c(/C=C3\SC(=O)NC3=O)cccc2-c2ccccc2)C1 [AZD1208] + Nc1ncn([C@H]2C[C@H](O)[C@@H](CO)O2)c(=O)n1 [Decitabine] (partner 2 µM)
# Procedure, shortened: as §1
Cell Line,relative viability ([1]; first compound 0.08 µM),relative viability ([1]; first compound 0.8 µM),relative viability ([1]; first compound 2.53 µM),relative viability ([1]; first compound 8 µM),relative viability ([2]; first compound 0.08 µM),relative viability ([2]; first compound 0.8 µM),relative viability ([2]; first compound 2.53 µM),relative viability ([2]; first compound 8 µM),relative viability ([3]; first compound 0.08 µM),relative viability ([3]; first compound 0.253 µM),relative viability ([3]; first compound 0.8 µM),relative viability ([3]; first compound 2.53 µM),relative viability ([3]; first compound 8 µM),relative viability ([4]; first compound 0.08 µM),relative viability ([4]; first compound 0.253 µM),relative viability ([4]; first compound 0.8 µM),relative viability ([4]; first compound 2.53 µM),relative viability ([4]; first compound 8 µM)
NCI-H358,0.0998,0.147,0.132,0.124,0.487,0.593,0.461,0.455,0.537,0.559,0.499,0.566,0.438,0.206,0.188,0.185,0.207,0.197
EPLC-272H,0.306,0.299,0.324,0.347,0.165,0.207,0.254,0.433,0.93,1,0.792,0.849,0.726,0.412,0.342,0.392,0.364,0.368
LXF-289,0.625,0.571,0.55,0.575,1.14,0.969,1.12,0.98,0.853,0.894,0.8,0.814,0.928,0.36,0.423,0.378,0.36,0.289
NCI-H3122,0.197,0.167,0.213,0.147,0.978,0.893,0.936,0.555,0.264,0.246,0.241,0.254,0.285,0.457,0.362,0.351,0.431,0.315
NCI-H1755,0.477,0.458,0.474,0.476,0.44,0.366,0.467,0.357,0.863,0.939,0.8,0.777,0.728,0.695,0.675,0.723,0.713,0.625
HCC-78,0.487,0.54,0.557,0.445,0.567,0.565,0.749,0.404,0.338,0.366,0.333,0.356,0.323,0.685,0.629,0.646,0.704,0.697
LOU-NH91,0.509,0.548,0.575,0.499,0.785,0.814,0.714,0.675,0.728,0.728,0.727,0.693,0.721,0.766,0.798,0.793,0.798,0.798
NCI-H322M,0.449,0.523,0.472,0.514,0.593,0.542,0.583,0.509,1.14,0.972,0.975,0.607,0.974,0.669,0.659,–,0.669,0.713
HCC-827,0.506,0.406,0.451,0.446,0.227,0.202,0.203,0.191,0.93,0.992,0.931,0.915,0.936,0.435,0.327,0.281,0.341,0.335
NCI-H1975,0.597,0.614,0.618,0.448,0.743,0.745,0.717,0.569,0.925,1.03,0.991,0.933,0.915,0.356,0.412,0.357,0.377,0.284
NCI-H1651,0.535,0.535,0.535,0.522,0.429,0.466,0.444,0.46,0.899,0.918,0.83,0.835,0.81,0.665,0.642,–,0.613,0.554
NCI-H460,0.156,0.21,0.164,0.12,0.619,0.601,0.634,0.453,0.912,1.17,0.854,0.709,0.871,0.458,0.604,0.465,0.495,0.516
LCLC-103H,0.487,0.491,0.421,0.481,0.804,0.837,0.781,0.681,1.03,1.11,1.05,1.31,1.03,0.715,0.654,0.707,0.723,0.743
LCLC-97TM1,0.197,0.239,0.321,0.203,0.346,0.293,0.303,0.227,0.464,0.515,–,0.318,0.294,0.175,0.209,0.238,0.233,0.178
NCI-H838,0.221,0.217,0.226,0.213,0.91,0.952,0.975,0.897,0.967,0.806,0.892,0.843,0.758,0.458,0.491,0.465,0.493,0.406
NCI-H1355,0.393,0.419,0.383,0.331,0.85,0.625,0.652,0.572,0.974,1.09,0.997,1.06,0.916,0.331,0.327,0.335,0.341,0.33
HOP-62,0.435,0.41,0.538,0.443,0.489,0.57,0.726,0.513,0.991,0.869,0.895,0.883,0.969,0.231,0.212,0.22,0.254,0.24
NCI-H2087,0.198,0.279,0.236,0.246,1.26,1.14,1.04,0.764,1.06,1.13,0.812,0.993,0.979,0.229,0.307,0.258,0.236,0.25

# Reference: the supplement of paper PMC10307832
